Target: T1, Recombinant mouse PD-L1 (Mus musculus, UniProt Q9EP73)
T1 construct: Fc (Fc chimera); purchased R&D Systems 1019-B7-100
Test: Rescue of mouse splenocyte proliferation in the presence of recombinant PD-L1 (CFSE proliferation assay)
Type: cell-based
Settings: 100 nM compound; anti-CD3/CD28 stimulated CFSE-labelled mouse splenocytes + PD-L1, 72 h; normalised to stimulated splenocyte proliferation as 100%; read-out: Percent rescue of proliferation (@100 nM compound concentration)
Description: Rescue of Mouse Splenocyte Proliferation in the Presence of Recombinant PD-L1
Recombinant mouse PD-L1 (rm-PDL-1, cat no: 1019-B7-100; R&D Systems) were used as the source of PD-L1.
Mouse splenocytes harvested from 6-8 weeks old C57 BL6 mice; RPMI 1640 (GIBCO, Cat #11875); DMEM with high glucose (GIBCO, Cat #D6429); Fetal Bovine Serum └Hyclone, Cat #SH30071.03┘; Penicillin (10000 unit/mL)-Streptomycin(10,000 μg/mL) Liquid (GIBCO, Cat #15140-122); MEM Sodium Pyruvate solution 100 mM (100×), Liquid (GIBCO, Cat #11360); Nonessential amino acid (GIBCO, Cat #11140); L-Glutamine (GIBCO, Cat #25030); Anti-CD3 antibody (eBiosciences—16-0032); Anti-CD28 antibody (eBiosciences—16-0281); ACK lysis buffer (1 mL) (GIBCO, Cat #-A10492); Histopaque (density-1.083 gm/mL) (SIGMA 10831); Trypan blue solution (SIGMA-T8154); 2 mL Norm Ject Luer Lock syringe-(Sigma 2014-12); 40 μm nylon cell strainer (BD FALCON 35230); Hemacytometer (Bright line-SIGMA Z359629); FACS Buffer (PBS/0.1% BSA): Phosphate Buffered Saline (PBS) pH 7.2 (HiMedia TS1006) with 0.1% Bovine Serum Albumin (BSA) (SIGMA A7050) and sodium azide (SIGMA 08591); 5 mM stock solution of CFSE: CFSE stock solution was prepared by diluting lyophilized CFSE with 180 μL of Dimethyl sulfoxide (DMSO C2H6SO, SIGMA-D-5879) and aliquoted in to tubes for further use. Working concentrations were titrated from 10 μM to 1 μM. (eBioscience-650850-85); 0.05% Trypsin and 0.02% EDTA (SIGMA 59417C); 96-well format ELISA plates (Corning CLS3390); BD FACS caliber (E6016); Recombinant mouse B7-H1/PDL1 Fc Chimera, (rm-PD-L1 cat no: 1019-B7-100).
Splenocytes harvested in a 50 mL falcon tube by mashing mouse spleen in a 40 μm cell strainer were further treated with 1 mL ACK lysis buffer for 5 min at room temperature. After washing with 9 mL of RPMI complete media, cells were re-suspended in 3 mL of 1×PBS in a 15 mL tube. 3 mL of Histopaque was added carefully to the bottom of the tube without disturbing overlaying splenocyte suspension. After centrifuging at 800×g for 20 min at room temperature, the opaque layer of splenocytes was collected carefully without disturbing/mixing the layers. Splenocytes were washed twice with cold 1×PBS followed by total cell counting using Trypan Blue exclusion method and used further for cell based assays.
Splenocytes were cultured in RPMI complete media (RPMI+10% fetal bovine serum+1 mM sodium pyruvate+10,000 units/mL penicillin and 10,000 μg/mL streptomycin) and maintained in a CO2 incubator with 5% CO2 at 37° C.
CFSE is a dye that passively diffuses into cells and binds to intracellular proteins. 1×10^6 cells/mL of harvested splenocytes were treated with 5 μM of CFSE in pre-warmed 1×PBS/0.1% BSA solution for 10 min at 37° C. Excess CFSE was quenched using 5 volumes of ice-cold culture media to the cells and incubated on ice for 5 min CFSE labelled splenocytes were further given three washes with ice cold complete RPMI media. CFSE labelled 1×10^5 splenocytes added to wells containing either MDA-MB231 cells (1×10^5 cells cultured in high glucose DMEM medium) or recombinant human PDL-1 (100 ng/mL) and test compounds. Splenocytes were stimulated with anti-mouse CD3 and anti-mouse CD28 antibody (1 μg/mL each) and the culture was further incubated for 72 h at 37° C. with 5% CO2. Cells were harvested and washed thrice with ice cold FACS buffer and % proliferation was analysed by flow cytometry with 488 nm excitation and 521 nm emission filters.
Percent splenocyte proliferation was analysed using cell quest FACS program and percent rescue of splenocyte proliferation by compound was estimated after deduction of % background proliferation value and normalising to % stimulated splenocyte proliferation (positive control) as 100%.
Stimulated splenocytes: Splenocytes+anti-CD3/CD28 stimulation.
Background proliferation: Splenocytes+anti-CD3/CD28+PD-L1.
Compound proliferation: Splenocytes+anti-CD3/CD28+PD-L1+Compound. […]

T1 sequence (Q9EP73 with tags, fused parts or gaps limits assumed): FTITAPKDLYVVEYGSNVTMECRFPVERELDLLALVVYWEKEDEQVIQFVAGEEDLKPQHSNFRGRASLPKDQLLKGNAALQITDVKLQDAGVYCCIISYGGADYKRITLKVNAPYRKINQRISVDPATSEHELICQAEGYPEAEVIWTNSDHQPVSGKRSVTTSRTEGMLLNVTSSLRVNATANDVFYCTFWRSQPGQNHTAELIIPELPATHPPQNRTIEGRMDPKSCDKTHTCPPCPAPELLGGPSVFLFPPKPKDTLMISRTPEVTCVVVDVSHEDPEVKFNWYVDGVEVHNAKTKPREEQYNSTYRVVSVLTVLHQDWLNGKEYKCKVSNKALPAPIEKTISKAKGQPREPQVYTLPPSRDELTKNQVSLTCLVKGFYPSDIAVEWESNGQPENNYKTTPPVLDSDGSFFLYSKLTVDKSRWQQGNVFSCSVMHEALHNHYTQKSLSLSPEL

activation at 0.1 µM [%]	SMILES
17	O=C1COCCOCCNC(=O)[C@H](CO)NC(=O)N[C@@H](CO)C(=O)NNC(=O)[C@H](CO)N1 [Compound 11]
53	CC(C)C[C@@H]1NC(=O)N[C@@H](CC(N)=O)C(=O)NNC(=O)[C@H](CO)NC(=O)COCCOCCNC1=O [Compound 13]
40	CC(O)[C@@H]1NC(=O)N[C@@H](CCCCN)C(=O)NNC(=O)[C@H](CO)NC(=O)COCCOCCNC1=O (some centres unmarked) [Compound 6]
23	CCC(C)[C@@H]1NC(=O)N[C@@H](C(C)O)C(=O)NCCOCCOCC(=O)N[C@@H](CO)C(=O)NNC1=O (some centres unmarked) [Compound 7]
38	CCC(C)[C@@H]1NC(=O)N[C@@H](CCC(N)=O)C(=O)NCCOCCOCC(=O)N[C@@H](CCC(=O)O)C(=O)NNC1=O (some centres unmarked) [Compound 17]
76	O=C1COCCOCCNC(=O)[C@H](Cc2ccc(O)cc2)NC(=O)N2CCCC2C(=O)NNC(=O)[C@H](Cc2ccc(O)cc2)N1 (some centres unmarked) [Compound 1]
66	CC(O)[C@@H]1NC(=O)N[C@@H](Cc2ccccc2)C(=O)NNC(=O)[C@H](CO)NC(=O)COCCOCCNC1=O (some centres unmarked) [Compound 3]
24	NCCCC[C@@H]1NC(=O)COCCOCCNC(=O)[C@H](CCCCN)NC(=O)N[C@@H](CCCCN)C(=O)NNC1=O [Compound 5]
30	CC(O)[C@@H]1NC(=O)N[C@@H](Cc2ccccc2)C(=O)NNC(=O)[C@H](CCCCN)NC(=O)COCCOCCNC1=O (some centres unmarked) [Compound 16]
91	CC(O)[C@@H]1NC(=O)COCCOCCNC(=O)[C@H](C(C)O)NC(=O)N[C@@H](C(C)O)C(=O)NNC1=O (some centres unmarked) [Compound 12]
53	O=C(O)C[C@@H]1NC(=O)COCCOCCNC(=O)[C@H](CC(=O)O)NC(=O)N[C@@H](CC(=O)O)C(=O)NNC1=O [Compound 10]
40	CCC(C)[C@@H]1NC(=O)N[C@@H](CCC(=O)O)C(=O)NCCOCCOCC(=O)N[C@@H](CCC(N)=O)C(=O)NNC1=O (some centres unmarked) [Compound 15]
57	CC(O)[C@@H]1NC(=O)N[C@@H](CC(N)=O)C(=O)NNC(=O)[C@H](CCCCN)NC(=O)COCCOCCNC1=O (some centres unmarked) [Compound 2]
46	CC(O)[C@@H]1NC(=O)N[C@@H](CC(N)=O)C(=O)NNC(=O)[C@H](CC(=O)O)NC(=O)COCCOCCNC1=O (some centres unmarked) [Compound 9]
